Data published in patent US20220046923A1, “HERBICIDAL CINNOLINIUM COMPOUNDS” (SYNGENTA CROP PROTECTION AG, priority 2018, published 2022).
Counter-ions that a name gives are not always drawn.

Legend:
Assay in all cases: Post-emergence efficacy, glasshouse spray test
Assay type in all cases: in vivo
Setaria faberi (SETFA) = settings: Setaria faberi, post-emergence, 312 h, evaluated after 13 days, read-out: Control of weed species SETFA after post-emergence application (100=total damage to plant; 0=no damage to plant); for pest or weed control at 1000 g/ha: application rate 1000 g/Ha; for pest or weed control at 500 g/ha: application rate 500 g/Ha
In short: (§1)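 Compound formulated in acetone/IF50 and diluted into 0.25% or 1% Empicol ESC70 with 1% ammonium sulphate was sprayed on glasshouse seedlings 14 days after sowing. Growth continued at 24/16 °C, 14 h light, 65% humidity with twice-daily watering; damage (0–100) scored on day 13.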

[1] = tested on: Amaranthus palmeri (AMAPA); settings: Amaranthus palmeri, post-emergence, 312 h, evaluated after 13 days, read-out: Control of weed species AMAPA after post-emergence application (100=total damage to plant; 0=no damage to plant); for pest or weed control at 1000 g/ha: application rate 1000 g/Ha; for pest or weed control at 500 g/ha: application rate 500 g/Ha
In short: as §1

[2] = tested on: Chenopodium album (CHEAL); settings: Chenopodium album, post-emergence, 312 h, evaluated after 13 days, read-out: Control of weed species CHEAL after post-emergence application (100=total damage to plant; 0=no damage to plant); for pest or weed control at 1000 g/ha: application rate 1000 g/Ha; for pest or weed control at 500 g/ha: application rate 500 g/Ha
In short: as §1

[3] = tested on: Ipomoea hederacea (IPOHE); settings: Ipomoea hederacea, post-emergence, 312 h, evaluated after 13 days, read-out: Control of weed species IPOHE after post-emergence application (100=total damage to plant; 0=no damage to plant); for pest or weed control at 1000 g/ha: application rate 1000 g/Ha; for pest or weed control at 500 g/ha: application rate 500 g/Ha
In short: as §1

[4] = tested on: Echinochloa crus-galli (ECHCG); settings: Echinochloa crus-galli, post-emergence, 312 h, evaluated after 13 days, read-out: Control of weed species ECHCG after post-emergence application (100=total damage to plant; 0=no damage to plant); for pest or weed control at 1000 g/ha: application rate 1000 g/Ha; for pest or weed control at 500 g/ha: application rate 500 g/Ha
In short: as §1

Lolium perenne (LOLPE) = settings: Lolium perenne, post-emergence, 312 h, evaluated after 13 days, read-out: Control of weed species LOLPE after post-emergence application (100=total damage to plant; 0=no damage to plant); for pest or weed control at 1000 g/ha: application rate 1000 g/Ha; for pest or weed control at 500 g/ha: application rate 500 g/Ha
In short: as §1

Eleusine indica (ELEIN) = settings: Eleusine indica, post-emergence, 312 h, evaluated after 13 days, read-out: Control of weed species ELEIN after post-emergence application (100=total damage to plant; 0=no damage to plant); for pest or weed control at 1000 g/ha: application rate 1000 g/Ha; for pest or weed control at 500 g/ha: application rate 500 g/Ha
In short: as §1

[5] = tested on: Digitaria sanguinalis (DIGSA); settings: Digitaria sanguinalis, post-emergence, 312 h, evaluated after 13 days, read-out: Control of weed species DIGSA after post-emergence application (100=total damage to plant; 0=no damage to plant); for pest or weed control at 1000 g/ha: application rate 1000 g/Ha; for pest or weed control at 500 g/ha: application rate 500 g/Ha
In short: as §1

[6] = tested on: Euphorbia heterophylla (EPHHL); settings: Euphorbia heterophylla, post-emergence, 312 h, evaluated after 13 days, read-out: Control of weed species EPHHL after post-emergence application (100=total damage to plant; 0=no damage to plant); for pest or weed control at 1000 g/ha: application rate 1000 g/Ha; for pest or weed control at 500 g/ha: application rate 500 g/Ha
In short: as §1

| SMILES | pest or weed control at 1000 g/ha (Setaria faberi (SETFA)) | pest or weed control at 1000 g/ha [1] | pest or weed control at 1000 g/ha [2] | pest or weed control at 1000 g/ha [3] | pest or weed control at 1000 g/ha [4] | pest or weed control at 1000 g/ha (Lolium perenne (LOLPE)) | pest or weed control at 1000 g/ha (Eleusine indica (ELEIN)) | pest or weed control at 1000 g/ha [5] | pest or weed control at 1000 g/ha [6] | pest or weed control at 500 g/ha (Setaria faberi (SETFA)) | pest or weed control at 500 g/ha [1] | pest or weed control at 500 g/ha [2] | pest or weed control at 500 g/ha [3] | pest or weed control at 500 g/ha [4] | pest or weed control at 500 g/ha (Lolium perenne (LOLPE)) | pest or weed control at 500 g/ha (Eleusine indica (ELEIN)) | pest or weed control at 500 g/ha [5] | pest or weed control at 500 g/ha [6] |
| --- | --- | --- | --- | --- | --- | --- | --- | --- | --- | --- | --- | --- | --- | --- | --- | --- | --- | --- |
| O=C(O)c1ccccc1C[n+]1ccc2ccccc2n1 [Compound A55] | 0% | 10% | 30% | 30% | 20% | 0% | 10% | 10% | 30% | – | – | – | – | – | – | – | – | – |
| COC(=O)CC[n+]1ccc2ccccc2n1 [Compound A61] | 50% | 70% | 60% | 60% | 60% | 10% | 90% | 80% | 70% | – | – | – | – | – | – | – | – | – |
| O=S(=O)([O-])CC[n+]1ccc2c(Cl)cccc2n1 [Compound A96] | 30% | 70% | 100% | 20% | 40% | 40% | 60% | 60% | 100% | – | – | – | – | – | – | – | – | – |
| COC(=O)CCC[n+]1ccc2ccccc2n1 [Compound A16, methyl 4-cinnolin-2-ium-2-ylbutanoate 2,2,2-trifluoroacetate] | 50% | 50% | 70% | 10% | 50% | 20% | 60% | 40% | 40% | – | – | – | – | – | – | – | – | – |
| C[C@@H](CNS(=O)(=O)[O-])[n+]1ccc2ccccc2n1 [Compound A50] | – | – | – | – | – | – | – | – | – | 20% | 80% | 70% | 40% | 20% | 20% | 20% | 30% | 60% |
| Cc1c[n+](CC(=O)[O-])nc2c(C)cccc12 [Compound A8] | 10% | 50% | 60% | 30% | 20% | 10% | 50% | 30% | 40% | – | – | – | – | – | – | – | – | – |
| O=P(O)(O)C[n+]1ccc2ccccc2n1 [Compound A73, cinnolin-2-ium-2-ylmethyl(hydroxy)phosphinate chloride] | 0% | 10% | 0% | 30% | 10% | 10% | 10% | 10% | 10% | – | – | – | – | – | – | – | – | – |
| CC(CC(=O)O)[n+]1ccc2ccccc2n1 (stereo not drawn) [Compound A115, 3-cinnolin-2-ium-2-ylbutanoic Acid 2,2,2-trifluoroacetate] | – | – | – | – | – | – | – | – | – | 30% | 100% | 40% | 20% | 20% | 20% | 60% | 60% | 20% |
| CC#Cc1c[n+](CCOS(=O)(=O)[O-])nc2ccccc12 [Compound A54, 2-(4-prop-1-ynylcinnolin-2-ium-2-yl)ethyl sulfate] | 20% | 30% | 40% | 10% | 10% | 10% | 30% | 30% | 30% | – | – | – | – | – | – | – | – | – |
| O=S(=O)([O-])CC(O)C[n+]1ccc2ccccc2n1 (stereo not drawn) [Compound A28] | 50% | 90% | 70% | 60% | 40% | 60% | 80% | 60% | 80% | – | – | – | – | – | – | – | – | – |
| O=C([O-])C[n+]1ccc2ccccc2n1 [Compound A2, 2-cinnolin-2-ium-2-ylacetate] | 80% | 100% | 80% | 40% | 100% | 20% | 100% | 100% | 90% | – | – | – | – | – | – | – | – | – |
| Cc1cc2ccccc2n[n+]1CCOS(=O)(=O)[O-] [Compound A75] | 30% | 100% | 90% | 30% | 30% | 20% | 80% | 70% | 40% | – | – | – | – | – | – | – | – | – |
| O=S(=O)([O-])OCC[n+]1ccc2ccccc2n1 [Compound A26] | 60% | 100% | 70% | 70% | 30% | 60% | 70% | 70% | 90% | – | – | – | – | – | – | – | – | – |
| O=S(=O)([O-])OCCC[n+]1ccc2ccccc2n1 [Compound A27] | 70% | 100% | 90% | 50% | 50% | 40% | 80% | 70% | 60% | – | – | – | – | – | – | – | – | – |
| O=S(=O)([O-])CC[n+]1ccc2cc(Cl)ccc2n1 [Compound A88] | 40% | 70% | 40% | 20% | 20% | 30% | 50% | 50% | 60% | – | – | – | – | – | – | – | – | – |
| Cc1c[n+](CCO)nc2ccccc12 [Compound A118] | 10% | 10% | 10% | 10% | 10% | 10% | 20% | 20% | 20% | – | – | – | – | – | – | – | – | – |
